Results: patent US5256700A (priority 1990, dated 1993)

Columns and labels:
[1] = tested on: simple herpes of type 2 (HSV2); assay: Antiviral activity in vitro, test 2 (viral production after 4 days), HSV2; assay type: cell-based, HSV2 (cultured on VERO cell line); conditions: for Number of viral particles/0.025 ml supernatant, Test 2 HSV2: control 10^7
Chemical stability = assay type: physicochemical
[2] = tested on: certain microorganisms responsible for dental caries and bad breath; conditions: CA 97, 84835q; cited from earlier work
[3] = tested on: simple herpes of type 1 (HSV1); assay: Antiviral activity in vitro, test 1 (titer after 2 h incubation), HSV1; assay type: cell-based, HSV1 (cultured on VERO cell line); conditions: control 10^5
[4] = tested on: simple herpes of type 2 (HSV2); assay: Antiviral activity in vitro, test 1 (titer after 2 h incubation), HSV2; assay type: cell-based, HSV2 (cultured on VERO cell line); conditions: control 10^4
[5] = Brieskorn and Domling 1969; cited from earlier work
[6] = tested on: simple herpes of type 1 (HSV1); assay: Antiviral activity in vitro, test 2 (viral production after 4 days), HSV1; assay type: cell-based, HSV1 (cultured on VERO cell line); conditions: for Number of viral particles/0.025 ml supernatant, Test 2 HSV1: control 2 × 10^8
DNA = assay: Degradation of DNA caused by free radicals

Question: With CC(C)c1cc2c(c(O)c1O)[C@@]1(C(=O)O)CCCC(C)(C)[C@@H]1CC2 [Carnosic acid] as the compound, how does the “cell toxicity” value (VERO cell line) read?
Answer: Its value is “absence of cell toxicity”.

Question: What about the “Number of viral particles/0.025 ml supernatant, Test 2 HSV2” value (“Number … Test 2 HSV2” for short) ([1]; 0.62 μg/ml) of the same compound?
Answer: Its value is 8 × 10^5 viral particles/0.025 ml supernatant.

Question: And the “Number … Test 2 HSV2” value ([1]; 1.25 μg/ml)?
Answer: Its value is 10^5 viral particles/0.025 ml supernatant.

Question: What about the “Number … Test 2 HSV2” value ([1]; 2.5 μg/ml) of the same compound?
Answer: The value was 2 × 10^2 viral particles/0.025 ml supernatant.

Question: And the “Number … Test 2 HSV2” value ([1]; 5 μg/ml)?
Answer: The value was < 10 viral particles/0.025 ml supernatant.

Question: And the “production of HSV2” value ([1]; test 2)?
Answer: The value was “greatly affected”.

Question: What about the “sensitivity to oxidation” value (Chemical stability; like any catechol-type molecule) of the same compound?
Answer: Its value is “highly sensitive to oxidation”.

Question: What about the “stability, purified and crystallized form” value (Chemical stability; purified and crystallized form) of the same compound?
Answer: Its value is “stable”.

Question: And the “antibiotic activity against microorganisms responsible for dental caries and bad breath” value [2]?
Answer: The value was “against certain microorganisms responsible for dental caries and bad breath”.

Question: What about the “Number of viral particles/0.025 ml supernatant, Test 1 HSV1” value (shortened to “Number … Test 1 HSV1”) ([3]; 0.62 μg/ml) of the same compound?
Answer: Its value is 10^4 viral particles/0.025 ml supernatant.

Question: What about the “Number … Test 1 HSV1” value ([3]; 1.25 μg/ml) of the same compound?
Answer: The value was 10^3 viral particles/0.025 ml supernatant.

Question: And the “Number … Test 1 HSV1” value ([3]; 2.5 μg/ml)?
Answer: The value was 10 viral particles/0.025 ml supernatant.

Question: And the “Number … Test 1 HSV1” value ([3]; 5 μg/ml)?
Answer: Its value is 10 viral particles/0.025 ml supernatant.

Question: And the “Number of viral particles/0.025 ml supernatant, Test 1 HSV2” value (“Number … Test 1 HSV2” below) ([4]; 0.62 μg/ml)?
Answer: Its value is 10 viral particles/0.025 ml supernatant.

Question: What about the “Number … Test 1 HSV2” value ([4]; 1.25 μg/ml) of the same compound?
Answer: Its value is 10 viral particles/0.025 ml supernatant.

Question: What about the “Number … Test 1 HSV2” value ([4]; 2.5 μg/ml) of the same compound?
Answer: The value was 10 viral particles/0.025 ml supernatant.

Question: And the “Number … Test 1 HSV2” value ([4]; 5 μg/ml)?
Answer: Its value is 10 viral particles/0.025 ml supernatant.

Question: And the “antioxidant activity” value [5]?
Answer: Its value is “powerful antioxidant”.

Question: What about the “Number of viral particles/0.025 ml supernatant, Test 2 HSV1” value (from here on “Number … Test 2 HSV1”) ([6]; 0.62 μg/ml) of the same compound?
Answer: The value was 6 × 10^6 viral particles/0.025 ml supernatant.

Question: What about the “Number … Test 2 HSV1” value ([6]; 1.25 μg/ml) of the same compound?
Answer: The value was 2.5 × 10^6 viral particles/0.025 ml supernatant.

Question: And the “Number … Test 2 HSV1” value ([6]; 2.5 μg/ml)?
Answer: The value was 10^5 viral particles/0.025 ml supernatant.

Question: What about the “Number … Test 2 HSV1” value ([6]; 5 μg/ml) of the same compound?
Answer: Its value is 10^2 viral particles/0.025 ml supernatant.

Question: And the “production of HSV1” value ([6]; test 2)?
Answer: Its value is “greatly affected”.

Question: What about the “effect on the degradation of DNA caused by the free radicals” value (DNA) of the same compound?
Answer: The value was “inhibiting effect”.
